Consider six compounds from patent US20230212180A1, “SUBSTITUTED PYRAZINE COMPOUND, PHARMACEUTICAL COMPOSITION COMPRISING SAME, AND USE THEREOF” (Sichuan Kelun-Biotech Biopharmaceutical Co., Ltd., priority 2020, published 2023).

What is called IC50 is the concentration that gives 50% inhibition.

One test concerns the target T1, hERG (Homo sapiens, UniProt Q12809).
T1 construct: purchased ThermoFisher
The test can be described thus: Biochemical assay for hERG inhibition (Predictor hERG Fluorescence Polarization Assay Kit). It is filed as binding. As for the experimental part: Test Example 3: Biochemical Assay for hERG Inhibition
kit: Predictor™ hERG Fluorescence Polarization Assay Kit (ThermoFisher) containing:
Compound E4031 as a positive control;
tracer concentration: 1 nM;
incubation duration: 2 hours;
parameters for microplate reader: BMG PHERAstar FS fluorescence microplate reader.
Test group: The test compounds at different concentrations were added into a microplate containing hERG cell membrane, and the tracer with a high affinity for hERG was then added into each well. The microplate was incubated at 25° C. for 2 hours before detection of the change in fluorescence polarization value (mP) (excitation wavelength: 540 nm; emission wavelength: 590 nm) using a multi-mode microplate reader.
Positive control group: The experimental method for the positive control group was the same as that for the test group, except that the test compound was replaced with 30 μM Compound E4031.
Blank control group: The experimental method for the blank control group was the same as that for the test group, except that the test compound was replaced with the hERG buffer and that the hERG cell membrane was not added.
Based on the data ratios, the percentage inhibition (%) of the compounds of the present disclosure against hERG at different concentrations was calculated and the range of the half maximal inhibitory concentration (IC50) of the compounds was determined. Percentage inhibition (%)=(1−(mP of the test compound−mP of the positive control group)/(mP of the blank control group−mP of the positive control group))×100%.

Test [1] has as its target T2, recombinant full-length human PTPN11 (SHP2) (Homo sapiens, UniProt Q06124).
T2 construct: recombinant full-length human PTPN11 (SHP2), active (SignalChem); purchased SignalChem
T2 sequence (Q06124 1-593): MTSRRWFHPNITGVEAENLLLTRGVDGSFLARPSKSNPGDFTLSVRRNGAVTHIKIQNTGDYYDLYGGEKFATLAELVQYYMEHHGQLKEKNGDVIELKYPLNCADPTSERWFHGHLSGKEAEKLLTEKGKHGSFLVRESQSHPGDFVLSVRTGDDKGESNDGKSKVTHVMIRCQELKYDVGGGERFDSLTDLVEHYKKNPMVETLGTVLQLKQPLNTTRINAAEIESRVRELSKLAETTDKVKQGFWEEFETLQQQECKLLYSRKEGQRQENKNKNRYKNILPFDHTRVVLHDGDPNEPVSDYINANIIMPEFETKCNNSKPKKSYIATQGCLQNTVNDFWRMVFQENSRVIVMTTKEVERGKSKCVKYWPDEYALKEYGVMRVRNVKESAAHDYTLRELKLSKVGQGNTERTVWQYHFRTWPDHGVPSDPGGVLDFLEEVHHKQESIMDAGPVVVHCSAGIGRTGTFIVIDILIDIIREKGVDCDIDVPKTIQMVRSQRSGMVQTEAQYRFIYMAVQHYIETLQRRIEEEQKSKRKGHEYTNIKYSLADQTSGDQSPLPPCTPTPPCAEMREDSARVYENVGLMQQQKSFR
The test can be described thus: Inhibition of in vitro enzyme activity of SHP2 (DiFMUP fluorescence endpoint assay). The format is biochemical. As to conditions: SHP2 0.5 nM, DiFMUP 200 μM, IRS-1 0.5 μM; 60 min incubation. How it is done: Test Example 1: Experiment on the Inhibition of In Vitro Enzyme Activity of SHP2 (Protein Phosphatase)
phosphatase: recombinant full-length human PTPN11 (SHP2), active (SignalChem);
substrate: 6,8-difluoro-4-methylumbelliferyl phosphate (DiFMUP) (Invitrogen);
activating peptide: IRS1_pY1172(dPEG8)pY1222 (IRS1) (BPS Bioscience);
terminator: bpv(phen) (bpv) (Abcam).
SHP2 concentration: 0.5 nM;
DiFMUP concentration: 200 μM;
IRS-1 concentration: 0.5 μM;
bpv concentration: 160 μM;
buffer systems: 60 mM Hepes pH 7.2; 75 mM NaCl; 75 mM KCl; 0.05% surfactant P20; 1 mM EDTA; 5 mM DTT;
incubation duration of compound and enzyme: 60 minutes;
reaction time of enzyme and substrate: 30 minutes;
parameters for microplate reader: BMG PHERAstar fluorescence microplate reader at an excitation wavelength of 340 nm and an emission wavelength of 450 nm.
Test group: A mixture of the test compound and the phosphatase SHP2 together with the activating peptide IRS-1 were incubated in the buffer system at room temperature for 60 minutes. The substrate DiFMUP was added to initiate the reaction and incubated at room temperature for 30 minutes. Thereafter, bpv was added to terminate the reaction. The reaction plate was placed in the microplate reader, and the fluorescence intensities of the wells in the plate were measured using an endpoint assay.
Negative group: The experimental method for the negative group was the same as that for the test group, except that the test compound was substituted with 0.05% aqueous solution of DMSO.
Blank group: The experimental method for the blank group was the same as that for the test group, except that the test compound was substituted with 0.05% aqueous solution of DMSO and that SHP2 was not added.
The relative inhibitory activity was calculated for the test group at each concentration based on the following equation: inhibition rate (%)=100%−(the fluorescence intensity of the test group−the fluorescence intensity of the blank group)/(the fluorescence intensity of the negative group−the fluorescence intensity of the blank group)×100%. The half maximal inhibitory concentration (IC50) of the compound was calculated by fitting the curve according to the four-parameter logistic model.

Test [2] relates to KYSE-520 cell (human esophageal squamous cell carcinoma cell). The test can be described thus: Inhibition of the proliferation activity of KYSE-520 cell (CellTiter-Glo). The format is cell-based. As to conditions: 120 h, KYSE-520 cell proliferation, 5 days. How it is done:
Test Example 2: Experiment on the Inhibition of the Proliferation Activity of KYSE-520 Cell (Human Esophageal Squamous Cell Carcinoma Cell)
cell: KYSE-520 (JCRB Cell Bank);
kit: CellTiter-Glo® Luminescent Cell Viability Assay Kit (Promega).
inoculation amount of cell: 1500 cells/well;
incubation conditions for compound: 37° C., 5% CO2;
incubation duration: 5 days;
detecting temperature: room temperature;
chemiluminescence detection using the BMG PHERAstar FS reader.
Cells were cultured in a medium containing 10% fetal bovine serum under the culture conditions of 37° C. and 5% CO2. An appropriate amount of cells were plated into a 96-well plate and cultured overnight in an incubator to allow the cells to adhere to the wall. The following day, the medium was removed and a complete medium containing a pre-diluted compound was added and incubated at 37° C. for 5 days. On the fifth day, the detection reagent CellTiter-Glo® was added into each well. Chemiluminescence was adopted to detect the relative luminescence units (RLUs) of the wells.
The result of a well containing cell-free medium, treated with CellTiter-Glo®, was obtained as the blank value. Cell viability (%)=(sample RLU−blank RLU)/(vehicle RLU−blank RLU)×100%, and maximum inhibition rate (%)=100%−cell viabilitymax. conc. (%). The half maximal inhibitory concentration (IC50) of the compound was calculated by fitting the curve according to the four-parameter logistic model.
For orientation: ATP-based viability assays read luminescence as a measure of living cells.

T1 sequence (Q12809 whole entry): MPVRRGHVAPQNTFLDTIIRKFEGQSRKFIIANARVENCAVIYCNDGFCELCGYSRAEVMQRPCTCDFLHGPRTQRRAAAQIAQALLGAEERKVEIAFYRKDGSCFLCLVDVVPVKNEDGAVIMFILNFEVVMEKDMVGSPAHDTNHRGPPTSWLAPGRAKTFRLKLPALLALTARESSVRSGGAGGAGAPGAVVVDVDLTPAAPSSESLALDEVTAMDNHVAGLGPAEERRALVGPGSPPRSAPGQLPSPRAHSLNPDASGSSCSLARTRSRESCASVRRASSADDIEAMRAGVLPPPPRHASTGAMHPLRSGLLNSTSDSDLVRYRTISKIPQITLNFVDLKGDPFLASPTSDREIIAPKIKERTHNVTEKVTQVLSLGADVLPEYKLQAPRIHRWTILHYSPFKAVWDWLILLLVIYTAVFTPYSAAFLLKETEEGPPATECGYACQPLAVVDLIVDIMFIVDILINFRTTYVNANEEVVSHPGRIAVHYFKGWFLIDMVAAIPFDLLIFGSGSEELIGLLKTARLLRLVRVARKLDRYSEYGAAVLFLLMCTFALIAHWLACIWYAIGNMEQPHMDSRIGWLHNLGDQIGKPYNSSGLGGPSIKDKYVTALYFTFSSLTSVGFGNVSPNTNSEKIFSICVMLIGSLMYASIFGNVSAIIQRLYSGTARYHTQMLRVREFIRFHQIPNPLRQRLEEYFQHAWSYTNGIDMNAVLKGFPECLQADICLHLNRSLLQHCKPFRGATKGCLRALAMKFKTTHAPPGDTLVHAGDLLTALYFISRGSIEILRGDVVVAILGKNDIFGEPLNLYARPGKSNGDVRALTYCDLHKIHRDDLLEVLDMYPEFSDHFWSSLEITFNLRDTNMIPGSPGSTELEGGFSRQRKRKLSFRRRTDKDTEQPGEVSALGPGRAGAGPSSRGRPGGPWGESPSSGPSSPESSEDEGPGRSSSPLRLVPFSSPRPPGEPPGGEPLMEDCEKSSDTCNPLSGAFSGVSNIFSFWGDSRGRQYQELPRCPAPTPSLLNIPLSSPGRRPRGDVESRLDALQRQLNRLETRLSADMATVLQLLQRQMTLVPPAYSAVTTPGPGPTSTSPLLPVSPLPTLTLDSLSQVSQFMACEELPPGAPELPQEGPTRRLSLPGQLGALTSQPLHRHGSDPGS

On to `C[C@@H]1OCC2(CCN(c3ncc(Sc4ccnc(N5CCCC5CC#N)c4Cl)nc3CO)CC2)[C@@H]1N` (stereo partly drawn) [Example 18, 2-(1-(4-(5-((3S,4S)-4-amino-3-methyl-2-oxa-8-azaspiro[4.5]decan-8-yl)-6-(hydroxymethyl)pyrazin-2-ylthio)-3-chloropyridin-2-yl)pyrrolidin-2-yl)acetonitrile], for which the IC50 is over 10000 nM on hERG, 1.9 nM in test [1] and 240 nM in test [2].

With `C[C@@H]1OCC2(CCN(c3ncc(Sc4ccnc(N5CC[C@H]5CO)c4Cl)nc3CO)CC2)[C@@H]1N` [Example 9, (3-((3S,4S)-4-amino-3-methyl-2-oxa-8-azaspiro[4.5]decan-8-yl)-6-(3-chloro-2-((S)-2-(hydroxymethyl)azetidin-1-yl)pyridin-4-ylthio)pyrazin-2-yl)methanol], the IC50 on hERG was over 10000 nM; in test [1], 1.3 nM; in test [2], 220 nM.

For `C[C@@H]1OCC2(CCN(c3ncc(Sc4ccnc(N5CC(C(C)(C)C#N)C5)c4Cl)nc3CO)CC2)[C@@H]1N` [Example 30, 2-(1-(4-(5-((3S,4S)-4-amino-3-methyl-2-oxa-8-azaspiro[4.5]decan-8-yl)-6-(hydroxymethyl)pyrazin-2-ylthio)-3-chloropyridin-2-yl)azetidin-3-yl)-2-methylpropanenitrile], the 50% inhibitory concentration (IC50) on hERG is over 10000 nM; in test [1], 4 nM.

On to `N[C@@H]1COCC12CCN(c1ncc(Sc3ccnc(N4CCCC4CO)c3Cl)nc1CO)CC2` (stereo partly drawn) [Example 7, (3-((S)-4-amino-2-oxa-8-azaspiro[4.5]decan-8-yl)-6-(3-chloro-2-(2-(hydroxymethyl)pyrrolidin-1-yl)pyridin-4-ylthio)pyrazin-2-yl)methanol], for which the IC50 at hERG was over 10000 nM; in test [1], 4.6 nM; in test [2], 770 nM.

As for `C[C@@H]1OCC2(CCN(c3ncc(Sc4ccnc(N5CC(F)(CO)C5)c4Cl)nc3CO)CC2)[C@@H]1N` [Example 39, (3-((3S,4S)-4-amino-3-methyl-2-oxa-8-azaspiro[4.5]decan-8-yl)-6-(3-chloro-2-(3-fluoro-3-(hydroxymethyl)azetidin-1-yl)pyridin-4-ylthio)pyrazin-2-yl)methanol], the IC50 at hERG is over 10000 nM; in test [1] it was 1.4 nM; in test [2], 20 nM.

Consider `C[C@@H]1OCC2(CCN(c3ncc(Sc4ccnc(N5CCCC5CO)c4Cl)nc3CF)CC2)[C@@H]1N` (stereo partly drawn) [Example 4, (1-(4-(5-((3S,4S)-4-amino-3-methyl-2-oxa-8-azaspiro[4.5]decan-8-yl)-6-(fluoromethyl)pyrazin-2-ylthio)-3-chloropyridin-2-yl)pyrrolidin-2-yl)methanol], for which the concentration for half-maximal inhibition (IC50) at hERG was over 10000 nM; in test [1], 4.1 nM; in test [2], 170 nM.
